Laboratory results from patent US20130018033A1, “RAF INHIBITOR COMPOUNDS AND METHODS OF USE THEREOF” (ARRAY BIOPHARMA INC., priority 2009, published 2013).
Where two headings read alike, the source gives them in different places.

Assays:
[1] = system: basal ERK1/2 phosphorylation in Malme-3M cells; test: Cellular ERK 1/2 phosphorylation assay (Example A1); type: cell-based; conditions: Homo sapiens, 1 hour incubation, pERK normalized to total ERK, read-out: P-ERK Malme3-M IC50
Description: Inhibition of basal ERK1/2 phosphorylation was determined by the following in vitro […], which comprises incubating cells with a compound of Formula I for 1 hour and quantifying the fluorescent pERK signal on fixed cells and normalizing to total ERK signal.
Malme-3M cells were obtained from ATCC and grown in RPMI-1640 supplemented with 10% fetal bovine serum. Cells were plated in 96-well plates at 24,000 cells/well and allowed to attach for 16-20 hours at 37° C., 5% CO2. The media was removed, and DMSO-diluted compounds were added in RPMI-1640 at a final concentration of 1% DMSO. The cells were incubated with the compounds for 1 hour at 37° C., 5% CO2. The cells were washed with PBS and fixed in 3.7% formaldehyde in PBS for 15 minutes. This was followed by washing in PBS/0.05% Tween20 and permeabilizing in −20° C. 100% MeOH for 15 minutes. Cells were washed in PBS/0.05% Tween20 then blocked in Odyssey blocking buffer (LI-COR Biosciences) for 1 hour. Antibodies to phosphorylated ERK (1:400, Cell Signaling #9106, monoclonal) and total ERK (1:400, Santa Cruz Biotechnology #sc-94, polyclonal) were added to the cells and incubated 16-20 hours at 4° C. After washing with PBS/0.05% Tween20, the cells were incubated with fluorescently-labeled secondary antibodies (1:1000 goat anti-rabbit IgG-IRDye800, Rockland and 1:500 goat anti-mouse IgG-Alexa Fluor 680, Molecular Probes) for an additional hour. Cells were then washed and analyzed for fluorescence at both wavelengths using the Odyssey Infrared Imaging System (LI-COR Biosciences). Phosphorylated ERK signal was normalized to total ERK signal.

[2] = target: T1, V600E full-length B-Raf (Homo sapiens, UniProt P15056, V600E); test: B-Raf IC50 assay (Example A); type: biochemical
T1 construct: 1 μM FSBA-MEK and 20 nM V600E full-length B-Raf; made in house; host or cells: Sf9 insect cells (baculovirus)
T1 sequence (P15056 whole entry V600E): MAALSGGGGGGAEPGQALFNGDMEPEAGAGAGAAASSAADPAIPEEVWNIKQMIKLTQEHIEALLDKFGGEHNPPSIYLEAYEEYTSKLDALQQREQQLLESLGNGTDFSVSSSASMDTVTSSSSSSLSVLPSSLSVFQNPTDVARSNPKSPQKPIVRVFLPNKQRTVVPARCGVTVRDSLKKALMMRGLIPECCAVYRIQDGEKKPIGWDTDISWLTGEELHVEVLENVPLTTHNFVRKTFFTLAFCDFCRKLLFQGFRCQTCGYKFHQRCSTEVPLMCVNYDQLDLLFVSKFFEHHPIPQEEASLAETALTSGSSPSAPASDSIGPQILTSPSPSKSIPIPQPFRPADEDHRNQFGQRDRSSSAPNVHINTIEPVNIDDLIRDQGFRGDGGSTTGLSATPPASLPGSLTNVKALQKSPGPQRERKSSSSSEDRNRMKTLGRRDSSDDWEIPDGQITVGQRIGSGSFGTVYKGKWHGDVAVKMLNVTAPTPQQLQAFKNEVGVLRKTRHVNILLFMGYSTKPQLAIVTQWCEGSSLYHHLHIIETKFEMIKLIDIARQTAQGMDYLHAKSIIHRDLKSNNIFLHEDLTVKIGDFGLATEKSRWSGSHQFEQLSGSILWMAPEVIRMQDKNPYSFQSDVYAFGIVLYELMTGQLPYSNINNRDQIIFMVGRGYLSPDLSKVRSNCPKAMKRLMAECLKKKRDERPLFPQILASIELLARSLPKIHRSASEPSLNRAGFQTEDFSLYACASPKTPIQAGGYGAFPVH
Excerpt: Determining the activity of Raf in the sample is possible by a number of direct and indirect detection methods (US 2004/0082014). Activity of human recombinant B-Raf protein may be assessed in vitro by assay of the incorporation of radio labeled phosphate to recombinant MAP kinase (MEK), a known physiologic substrate of B-Raf, according to US 2004/0127496 and WO 03/022840. The activity/inhibition of V600E full-length B-Raf was estimated by measuring the incorporation of radio labeled phosphate from [γ-^33P]ATP into FSBA-modified wild-type MEK (see Example A).
Activity of human recombinant B-Raf protein may be assessed in vitro by assay of the incorporation of radio labeled phosphate to recombinant MAP kinase (MEK), a known physiologic substrate of B-Raf, according to US 2004/0127496 and WO 03/022840. Catalytically active human recombinant B-Raf protein is obtained by purification from sf9 insect cells infected with a human B-Raf recombinant baculovirus expression vector.
The activity/inhibition of V600E full-length B-Raf was estimated by measuring the incorporation of radio labeled phosphate from [γ-^33P]ATP into FSBA-modified wild-type MEK. The 30-μL assay mixtures contained 25 mM Na Pipes, pH 7.2, 100 mM KCl, 10 mM MgCl2, 5 mM β-glycerophosphate, […], 4 μM ATP, 500 nCi [γ-^33P]ATP, 1 μM FSBA-MEK and 20 nM V600E full-length B-Raf. Incubations were carried out at 22° C. in a Costar 3365 plate (Corning). Prior to the assay, the B-Raf and FSBA-MEK were preincubated together in assay buffer at 1.5×(20 μL of 30 nM and 1.5 μM, respectively) for 15 minutes, and the assay was initiated by the addition of 10 μL of 10 μM ATP. Following the 60-minute incubation, the assay mixtures were quenched by the addition of 100 μL of 25% TCA, the plate was mixed on a rotary shaker for 1 minute, and the product was captured on a Perkin-Elmer GF/B filter plate using a Tomtec Mach III Harvester. After sealing the bottom of the plate, 35 μL of Bio-Safe II (Research Products International) scintillation cocktail were added to each well and the plate was top-sealed and counted in a Topcount NXT (Packard).

[3] = B-Raf V600E assay of Example A, read-out: IC50
[4] = [γ-33P]ATP incorporation into FSBA-MEK, 4 μM ATP, read-out: BRAF V600E IC50

| IC50 [2, 3] [nM] | IC50 [2, 4] [nM] | Structure (SMILES) | IC50 [1] [nM] | IC50 ([2]; BRAF V600E IC50 (μM), [γ-33P]ATP incorporation into FSBA-MEK, 4 μM ATP) [nM] |
| --- | --- | --- | --- | --- |
| < 100 | 4.13 | CCCS(=O)(=O)Nc1cc(F)cc(NC(=O)c2cccc3c(N)ncnc23)c1F [Example 11, 4-Amino-quinazoline-8-carboxylic acid [2,5-difluoro-3-(propane-1-sulfonylamino)-phenyl]-amide] | 45 |  |
| < 100 | 27.9 | CCCS(=O)(=O)Nc1cc(Cl)cc(NC(=O)c2cccc3c(N)ncnc23)c1F [Example 14, 4-Amino-quinazoline-8-carboxylic acid [5-chloro-2-fluoro-3-(propane-1-sulfonylamino)-phenyl]-amide] | 381 |  |
| < 100 | 0.5 | CC(C)CS(=O)(=O)Nc1ccc(Cl)c(NC(=O)c2cccc3c(N)ncnc23)c1F [Example 15, 4-Amino-quinazoline-8-carboxylic acid [6-chloro-2-fluoro-3-(2-methyl-propane-1-sulfonylamino)-phenyl]-amide] | 6.08 |  |
| < 100 | 1.53 | CCS(=O)(=O)Nc1ccc(Cl)c(NC(=O)c2cccc3c(N)ncnc23)c1F [Example 18, 4-Amino-quinazoline-8-carboxylic acid (6-chloro-3-ethanesulfonyl-amino-2-fluoro-phenyl)-amide] | 18.2 |  |
| < 100 | 2.24 | CCS(=O)(=O)Nc1ccc(F)c(NC(=O)c2cccc3c(N)ncnc23)c1Cl [Example 20, 4-Amino-quinazoline-8-carboxylic acid (2-chloro-3-ethanesulfonyl-amino-6-fluoro-phenyl)-amide] | 32.4 |  |
| < 100 | 18.5 | CCCS(=O)(=O)Nc1ccc(C)c(NC(=O)c2cccc3c(N)ncnc23)c1 [Example 21, 4-Amino-quinazoline-8-carboxylic acid [2-methyl-5-(propane-1 sulfonylamino)-phenyl]-amide] | 1320 |  |
| < 100 | 64.9 | CCCS(=O)(=O)Nc1ccc(Cl)c(NC(=O)c2cccc3c(N)ncnc23)c1 [Example 22, 4-Amino-quinazoline-8-carboxylic acid [2-chloro-5-(propane-1-sulfonylamino)-phenyl]-amide] | 1110 |  |
| < 100 | 0.09 | Nc1ncnc2c(C(=O)Nc3c(Cl)ccc(NS(=O)(=O)CCCF)c3F)cccc12 [Example 25, 4-Amino-quinazoline-8-carboxylic acid [6-chloro-2-fluoro-3-(3-fluoro-propane-1-sulfonylamino)-phenyl]-amide] | 2.21 |  |
| < 100 | 0.08 | Nc1ncnc2c(C(=O)Nc3c(Cl)ccc(NS(=O)(=O)CCCF)c3Cl)cccc12 [Example 27, 4-Amino-quinazoline-8-carboxylic acid [2,6-dichloro-3-(3-fluoro-propane-1-sulfonylamino)-phenyl]-amide] | 4.07 |  |
| < 100 | 0.08 | CCCS(=O)(=O)Nc1ccc(Cl)c(NC(=O)c2cccc3c(N)ncnc23)c1C#N [Example 29, 4-Amino-quinazoline-8-carboxylic acid [6-chloro-2-cyano-3-(propane-1-sulfonylamino)-phenyl]-amide] | 25.3 |  |
| < 100 | 0.08 | CCCS(=O)(=O)Nc1cccc(NC(=O)c2cccc3c(N)ncnc23)c1C#N [Example 30, 4-Amino-quinazoline-8-carboxylic acid [2-cyano-3-(propane-1-sulfonylamino)-phenyl]-amide] | 7.1 |  |
| < 100 | 0.4 | C#Cc1c(NS(=O)(=O)CCC)ccc(Cl)c1NC(=O)c1cccc2c(N)ncnc12 [Example 31, 4-Amino-quinazoline-8-carboxylic acid [6-chloro-2-ethynyl-3-(propane-1-sulfonylamino)-phenyl]-amide] | 42 |  |

The next lines start with the molecule.

| Structure (SMILES) | IC50 [2, 3] [nM] | IC50 [2, 4] [nM] | IC50 [1] [nM] | IC50 ([2]; BRAF V600E IC50 (μM), [γ-33P]ATP incorporation into FSBA-MEK, 4 μM ATP) [nM] |
| --- | --- | --- | --- | --- |
| CC(C)CS(=O)(=O)Nc1ccc(F)c(NC(=O)c2cccc3c(N)ncnc23)c1Cl [Example 10, 4-Amino-quinazoline-8-carboxylic acid [2-chloro-6-fluoro-3-(2-methyl-propane-1-sulfonylamino)-phenyl]-amide] | < 100 | 0.55 | 6.73 |  |
| CC(C)CS(=O)(=O)Nc1ccc(F)c(NC(=O)c2cccc3c(N)ncnc23)c1F [Example 12, 4-Amino-quinazoline-8-carboxylic acid [2,6-difluoro-3-(2-methyl-propane-1-sulfonylamino)-phenyl]-amide] | < 100 | 1.55 | 8.54 |  |
| Nc1ncnc2c(C(=O)Nc3c(F)ccc(NS(=O)(=O)CC4CC4)c3F)cccc12 [Example 13, 4-Amino-quinazoline-8-carboxylic acid (3-cyclopropyl-methane-sulfonylamino-2,6-difluoro-phenyl)-amide] | < 100 | 3.8 | 14.9 |  |
| Nc1ncnc2c(C(=O)Nc3c(F)ccc(NS(=O)(=O)CC4CC4)c3Cl)cccc12 [Example 16, 4-Amino-quinazoline-8-carboxylic acid (2-chloro-3-cyclopropyl-methane-sulfonylamino-6-fluoro-phenyl)-amide] | < 100 | 2.6 | 15.2 |  |
| CCCS(=O)(=O)Nc1ccc(Cl)c(NC(=O)c2cccc3c(N)ncnc23)c1F [Example 17, 4-Amino-quinazoline-8-carboxylic acid [6-chloro-2-fluoro-3-(propane-1-sulfonylamino)-phenyl]-amide] | < 100 |  | 8.7 | 0.58 |
| CCS(=O)(=O)Nc1ccc(F)c(NC(=O)c2cccc3c(N)ncnc23)c1F [Example 19, 4-Amino-quinazoline-8-carboxylic acid (3-ethanesulfonyl-amino-2,6-difluoro-phenyl)-amide] | < 100 | 4.97 | 25.9 |  |
| Nc1ncnc2c(C(=O)Nc3c(F)ccc(NS(=O)(=O)CCCF)c3Cl)cccc12 [Example 24, 4-Amino-quinazoline-8-carboxylic acid [2-chloro-6-fluoro-3-(3-fluoro-propane-1-sulfonylamino)-phenyl]-amide] | < 100 | 0.14 | 4.05 |  |
| Nc1ncnc2c(C(=O)Nc3c(F)c(F)cc(NS(=O)(=O)CCCF)c3F)cccc12 [Example 26, 4-Amino-quinazoline-8-carboxylic acid [2,3,6-trifluoro-5-(3-fluoro-propane-1-sulfonylamino)-phenyl]-amide] | < 100 | 0.31 | 10.8 |  |
| Nc1ncnc2c(C(=O)Nc3c(F)ccc(NS(=O)(=O)c4ccccc4)c3F)cccc12 [Example 32, 4-Amino-quinazoline-8-carboxylic acid (3-benzenesulfonylamino-2,6-difluoro-phenyl)-amide] | < 100 | 0.38 | 17.7 |  |
| Nc1ncnc2c(C(=O)Nc3c(F)ccc(NS(=O)(=O)c4ccco4)c3F)cccc12 [Example 33, 4-Amino-quinazoline-8-carboxylic acid [2,6-difluoro-3-(furan-2-sulfonylamino)-phenyl]-amide] | < 100 | 0.17 | 12.5 |  |
